From patent publication US5659023A, “Nucleotide analogues” (Gilead Sciences, Inc., priority 1995, dated 1997)
Where two headings read alike, the source gives them in different places.

Key:
[1] = toxicity assay in normal human dermal fibroblasts; type: cell-based
Procedure: (§1) Compounds made in the foregoing examples were assayed for inhibitory effect against human CMV using the standard plaque inhibition assay (Lurain, "J. Vir." 66:7146-7152 (1992)). The cells used for the toxicity assay were normal human dermal fibroblasts.

human CMV = experiment: standard plaque inhibition assay, inhibitory effect against human CMV; type: cell-based; details: Human betaherpesvirus 5
Procedure: as §1

[2] = human CMV, plaque inhibition assay (Table 8), read-out: IC50

SMILES	CC50 [1] [µM]	IC50 (human CMV; [2]) [µM]	CC50 ([1]; reference HPMPC, read-out: CC50) [µM]	IC50 (human CMV; reference HPMPC, read-out: IC50) [µM]	IC50 (human CMV) [µM]
C[C@@H]1O[C@H](P(=O)(O)O)C=C[C@@H]1n1ccc(N)nc1=O [(64), 4-(cytosin-1-yl)-2,3,6-trideoxy-β-L-threo-hex-2-enopyranosylphosphonic acid]	> 1000	200	–	–	–
Nc1ccn([C@@H]2CC=C(P(=O)(O)O)O[C@@H]2CO)c(=O)n1 [(28'), 4-(cytosin-1-yl)-2,3-dideoxy-D-threo-hex-1-enopyranosyl phosphonic acid]	> 1000	40	–	–	–
Nc1ccn(C[C@@H](CO)OCP(=O)(O)O)c(=O)n1 [HPMPC, reference compound]	–	–	200	0.5	–
Nc1ccn([C@@H]2CC[C@H](P(=O)(O)O)O[C@@H]2CO)c(=O)n1 [(32'), 4-(cytosin-1-yl)-β-D-threo-hexopyranosylphosphonic acid]	> 1000	80	–	–	–
Nc1ccn([C@@H]2C=C[C@H](P(=O)(O)O)O[C@@H]2CO)c(=O)n1 [(30), 4-(cytosin-1-yl)-2,3-dideoxy-β-D-threo-hex-2-enopyranosylphosphonic acid]	> 1000	–	–	–	10
C[C@@H]1OC(P(=O)(O)O)=CC[C@@H]1n1ccc(N)nc1=O [(65), 4-(cytosin-1-yl)-2,3,6-trideoxy-L-threo-hex-1-enopyranosylphosphonic acid]	> 1000	300	–	–	–
